Patent US20150157584A1, “INHIBITORS OF HIPPO-YAP SIGNALING PATHWAY” (The Regents of the University of California, priority 2012, published 2015)
Read-outs that look alike come from different tables or passages of the source.

Assays:
M14 cells = assay: wound healing assay; type: cell-based, human; details: M14 melanoma; 24 hr scratch assay
Method: Control and […] treated cells were plated on fibronectin ([…]) coated 6 well plates in complete growth media. After overnight culture, wounds were made by manual scraping of the cell monolayer with a pipet tip. The dishes were washed, replenished with media in the presence or absence of […], and photographed under phase contrast microscope. They were then placed in the tissue culture incubator, and the matched wound regions were photographed every 6 hrs. Migration rate is quantified by traveling distance of leading cellular edge normalized to initial gap distance.

YAP mRNA = YAP mRNA level by RT-PCR; type: cell-based, human; details: BOCs 293 cells; 3 μM; 12 and 24 hr
YAP [1] = type: cell-based, human
M14 Melanoma = assay: M14 melanoma cell proliferation (growth curve); type: cell-based, human
SK-Mel-28 melanoma = assay: cell migration assay, SK-Mel-28; type: cell-based, human
Method: (§1) Cell migration assay was performed using BD Falcon™ Cell culture inserts for 24-well plates with 22.0 μm pores filter, and the filter was pre-coated with […] Fibronectin. Cancer cells were serum-starved for 24 h and then seeded into the upper chamber of the insert in serum-free media, and lower chamber was filled with media containing 20% FBS with or without 2 μM C108. After 24 h, cells were fixed using 4% paraformaldehyde and stained using 0.05% crystal violet. Cells in upper chamber were carefully removed, and cells migrated through the filter were assessed by photography. For quantification, crystal violet was extracted and the absorbance at 560 nm was measured.

M14 = assay: transwell cell migration assay, M14; type: cell-based, human; details: 1, 2 and 3 μM C108
Method: Cell migration assay was performed using BD Falcon™ Cell culture inserts for 24-well plates with 22.0 μm pores filter, and the filter was pre-coated with […] Fibronectin. […] After 24 h, cells were fixed using 4% paraformaldehyde and stained using 0.05% crystal violet. Cells in upper chamber were carefully removed, and cells migrated through the filter were assessed by photography. For quantification, crystal violet was extracted and the absorbance at 560 nm was measured.

EKVX adenocarcinoma = assay: cell migration assay, EKVX; type: cell-based, human
Method: as §1

[2] = test system: EKVX adenocarcinoma xenograft; assay: EKVX adenocarcinoma xenograft in nude mice; type: in vivo, mouse; details: 100 mg/kg daily via tail-vein injection, three weeks
Method: (§5) Cells grown to 90% confluence were harvested by trypsinization, washed in phosphate-buffered saline (PBS), and resuspended in PBS supplemented with 50% matrigel (BD Biosciences). Cells in 200 μL per injection site were administered. Nude mice (Nu-foxn1nu, Charles Rivers Laboratories) were injected on both flanks of the dorsolateral sites subcutaneously. C108 was formulated in 10% DMSO and 40% propylene glycol then administered at a dose of 100 mg/kg daily via tail-vein injection. Control mice received vehicle alone. The average tumor diameter (two perpendicular axes of the tumor were measured) was recorded. The data are expressed in tumor volume estimated by ([width]^2×length/2). Paired, two-tailed Student's t-test was performed to access the statistical significance.
In order to investigate the physiological impact of C108 on implanted tumor cell growth, in vivo xenograft models using M14 melanoma and EKVX adenocarcinoma in immune compromised mice were examined. Cancer cells mixed with 50% matrigel were injected subcutaneously, palpable tumors with approximately 5 mm in diameter across all injection sites were observed within 3 weeks. […] During the treatment period, tumor growth was monitored and final tumor weights were measured.

M14 melanoma xenograft = M14 melanoma xenograft in nude mice
Method: as §5
In order to investigate the physiological impact of C108 on implanted tumor cell growth, in vivo xenograft models using M14 melanoma and EKVX adenocarcinoma in immune compromised mice were examined. Cancer cells mixed with 50% matrigel were injected subcutaneously, palpable tumors with approximately 5 mm in diameter across all injection sites were observed within 3 weeks. At that point, control group (6 mice) was tail-vein injected with the solvent consist of 10% DMSO and 40% propylene glycol while the treatment group (6 mice) received daily injection of C108 for three additional weeks. During the treatment period, tumor growth was monitored and final tumor weights were measured.

YAP [3] = assay: YAP ubiquitination (YAP immunoprecipitation, ubiquitin Western blot); type: cell-based, human; details: SF268 glioblastoma cells
Lats1 [4] = assay: Lats1 immunoprecipitation kinase assay with GST-YAP substrate; type: cell-based, human
Method: Cells were lysed using mild lysis buffer (50 mM HEPES at pH 7.5, 150 mM NaCl, 1 mM EDTA, 1% NP-40, 10 mM pyrophosphate, 10 mM glycerophosphate, 50 mM NaF, 1.5 mM Na3VO4, protease inhibitor cocktail [Roche], 1 mM PMSF). Cell lysates were cleared and used for immunoprecipitation. Lats1 antibody (Cell Signaling Technology) was mixed with cell lysates for 1 hr at 4° C., and then protein A agarose beads were added in for 1 hr. After four washes with lysis buffer, beads were washed once with wash buffer (40 mM HEPES, 200 mM NaCl) and once with kinase assay buffer (30 mM HEPES, 50 mM potassium acetate, 5 mM MgCl2). The immunoprecipitated Lats1 was then subjected to a kinase assay in the presence of 500 μM cold ATP, 10 μCi [γ-32P] ATP, and 1 μg of GST-YAP expressed and purified from Escherichia coli as substrate. The reaction mixtures were incubated for 30 min at 30° C., terminated with SDS sample buffer, and subjected to SDS-PAGE and immunoblotting.

YAP/TAZ = assay: immunoblotting / phos-tag gels of YAP/TAZ phosphorylation in cultured cell lines; type: cell-based, human
Method: Immunoblotting was performed using standard protocol. […] The phos-tag reagents were purchased from Wako Chemicals, and gels containing phos-tag were prepared according to manufacture's instructions. YAP proteins can be separated into multiple bands in the presence of phos-tag depending on differential phosphorylation levels, with phosphorylated proteins run migrate slower.
(§2) Immunoblotting was performed using standard protocol. Antibodies for pYAP (S127), YAP, TAZ (V386), pCREB, CREB, pMLC2 (S19), pMLC2 (T18/S19), MST1, MST2, and Lats1 were from Cell Signaling Technology. Lats2 antibody was from Bethyl laboratories. HA-HRP, GFP, and MLC2 antibodies were from Santa Cruz biotechnology. Tubulin, HSP90 and Flag-HRP were purchased from Sigma Aldrich. PKA antibody was obtained from BD biosciences. GAPDH antibody was a gift from Dr. Yan Luo. Yki antibody was a gift from Dr. Kenneth Irvine. The phos-tag reagents were purchased from Wako Chemicals, and gels containing phos-tag and MnC12 were prepared according to manufacturer's instructions. YAP proteins can be separated into multiple bands on phos-tag gels, with the phosphorylated form of YAP proteins migrating at a slower speed.

YAP [5] = details: mouse, in vivo, ip
Method: A protocol for epinephrine intraperitoneal (IP) injection in mice was approved by UCSD Institutional Animal Care and Use Committee. Fed male mice at 12 weeks of age were anesthetized. Control animals received an IP injection of propranolol (4 mg/100 g body weight) for 15 min. The test animals IP injected with epinephrine (75 μg/100 g body weight) for 15 min. […] The mice were sacrificed rapidly by cervical dislocation and the heart was harvested and immediately frozen in liquid nitrogen. Samples were stored at −80° C. until use. Frozen tissues were pulverized in liquid nitrogen. All of the subsequent steps were performed at 4° C. Powdered tissue samples were homogenized in 10 volumes (weight/volume) of buffer containing 50 mM Tris-HCl pH 7.6, 10 mM EDTA, 2 mM EGTA, 100 mM NaF, Protease inhibitor cocktail (1 mM Pefabloc, 1 mM benzamidine HCl, 1 μM leupeptin, and 1 μM E64), 1 mM PMSF, 0.2% Tritonx 100, 1 mM Na3VO4, 20 mM beta-glycerophosphate, 1 mM sodium pyrophosphate, and 50 nM calyculin A, using a tissue tearor. Homogenates were then centrifuged at 3,800 g for 10 min twice, and approximately 10 μg of protein, determined by Bradford, of the resultant supernatants were used for Western blot analysis.

YAP [6] = assay: immunofluorescence staining of YAP subcellular localization; type: cell-based, human
Method: HEK293A or MCF10A cells were seeded on coverslips. After treatment, cells were fixed with 4% paraformaldehyde-PBS for 15 min and permeabilized with 0.1% Triton X-100 in TBS. After blocking in 3% FBS in PBS for 30 min, cells were incubated with primary antibodies overnight at 4° C. After three washes with PBS, cells were incubated with Alexa Fluor 488- or 555-conjugated secondary antibodies (Invitrogen, 1:1000 dilution) for 2 h at room temperature. Slides were then washed three times and mounted. Immunofluorescence was detected using Olympus confocal microscopy. Primary antibodies used were: YAP (H-125) and YAP (63.7) from Santa Cruz, HA from Covance, β-catenin from BD biosciences. Phalloidin alexa 488 was used to stain actin filaments. For paraffin-embedded tissues from control or LPA receptor transgenic mammary glands, 5 μm sections were prepared and subjected for immunostaining Following deparaffinization and hydration, slides were heated in sub-boiling buffer (10 mM sodium citrate, pH 6.0) for 15 min for antigen retrieval. TAZ antibody (H-70) from Santa Cruz was used to as primary antibody.

CREB = CREB phosphorylation by immunoblotting; type: cell-based, human
Method: (§3) Immunoblotting was performed using standard protocol. Antibodies for pYAP (S127), pYAP(S381/384), pMST1/2, TAZ, pERK, ERK1/2, Lats1, MST1, pAKT (S473), pS6K, S6K were from Cell Signaling, antibodies for YAP (H-125), CTGF, Cyr61, Gq/11, G13 and 14-3-3θ were from Santa Cruz, TEAD1 antibody was from BD biosciences, pTAZ (S89) antibody was in-house raised, GAPDH antibody was a gift from Dr. Yan Luo. The phos-tag reagents were purchased from Wako Chemicals, and gels containing phos-tag were prepared according to manufacture's instructions. YAP proteins can be separated into multiple bands in the presence of phos-tag depending on differential phosphorylation levels, with phosphorylated proteins run migrate slower.
as §2, with “YAP proteins can be separated into multiple bands on phos-tag gels, with the phosphorylated form of YAP proteins migrating at a slower speed.” left out

YAP [7] = assay: YAP immunoprecipitation with TEAD1 and 14-3-3; type: cell-based, human; details: HEK293A
Method: (§4) Cells were lysed using mild lysis buffer (50 mM HEPES at pH 7.5, 150 mM NaCl, 1 mM EDTA, 1% NP-40, 10 mM pyrophosphate, 10 mM glycerophosphate, 50 mM NaF, 1.5 mM Na3VO4, protease inhibitor cocktail [Roche], 1 mM PMSF). Cell lysates were centrifuged for 10 min at 4° C., and supernatants were used for immunoprecipitation. YAP (Bethyl Laboratories) antibody was mixed with the supernatant for 1 h, and protein A-agarose beads were added in for 1 h. Immunoprecipitates were washed four times with lysis buffer, and proteins were eluted with SDS-PAGE sample buffer. For kinase assay, MST1, Lats1 or HA-Lats2 was immunoprecipitated similarly using MST1, Lats1 (Cell Signaling) or HA (Covance) antibodies.

Mst1/2 = assay: Mst kinase activity and phosphorylation in treated cells; type: cell-based, human
Method: Following immunoprecipitation, protein beads were washed once with wash buffer (40 mM HEPES, 200 mM NaCl) and once with kinase assay buffer (30 mM HEPES, 50 mM potassium acetate, 5 mM MgCl2). The immunoprecipitated Mst1 was subjected to a kinase assay in the presence of 500 μM cold ATP, 10 μCi [γ-^32P] ATP, and 1 μg of GST-Mob expressed and purified from Escherichia coli as substrate. The reaction mixtures were incubated for 30 min at 30° C., terminated with SDS sample buffer, and subjected to SDS-PAGE and autoradiography. Lats1 or HA-Lats2 kinase assays were performed similarly but using GST-YAP as substrates in the absence of [γ-^32P] ATP. The phosphorylation of GST-YAP at S127 was determined by immunoblotting using pYAP antibody.

CTGF = assay: expression of YAP/TAZ target gene CTGF; type: cell-based, human; details: HEK293A
Method: as §3
Following various treatments, cells were washed with cold phosphate-buffered saline and subjected to RNA extraction using an RNeasy Plus mini kit (Qiagen). […] Complementary DNA was then diluted and used for quantification (with β-actin gene as a control) by real-time PCR, which was performed using KAPA SYBR FAST qPCR master mix (Kapa Biosystems) and the 7300 real-time PCR system (Applied Biosystems). […]
RNA extraction, reverse transcription and real-time PCR. […] After dilution, cDNA levels were quantified by real-time PCR using KAPA SYBR FAST qPCR master mix (Kapa Biosystems) and the 7300 real-time PCR system (Applied Biosystems). […]

Lats1 [8] = assay: Lats1 phosphorylation (S909, T1079) by immunoblotting; type: cell-based, human; details: HEK293A; LPA 1 μM, 1 h
Method: as §4
Immunoblotting was performed using standard protocol. Antibodies for pYAP (S127), pYAP(S381/384), pMST1/2, TAZ, pERK, ERK1/2, Lats1, MST1, pAKT (S473), pS6K, S6K were from Cell Signaling, antibodies for YAP (H-125), CTGF, Cyr61, Gq/11, G13 and 14-3-3θ were from Santa Cruz, TEAD1 antibody was from BD biosciences, pTAZ (S89) antibody was in-house raised, GAPDH antibody was a gift from Dr. Yan Luo. The phos-tag reagents were purchased from Wako Chemicals, and gels containing phos-tag were prepared according to manufacture's instructions. […]

HEK293A cells = assay: cell proliferation assay, HEK293A; type: cell-based, human; details: 10 μM LPA, replenished every day
Method: HEK293A cells (expressing control shRNA or YAP/TAZ shRNA, 2×10^5) in serum-free media were maintained in the presence or absence of 10 μM LPA for 1, 2 or 3 day. Cell numbers were determined daily using a cell counter (Bio-Rad). LPA was replenished every day.

## O=S(=O)(c1ccc2c(c1)C(=NO)c1cc(S(=O)(=O)N3CCCCC3)ccc1-2)N1CCCCC1 [C108, 2,7-bis(piperidin-1-yl-sulfonyl)-9H-fluoren-9-one oxime]
M14 cells
  cell migration in wound-healing assay: strongly inhibited
YAP mRNA
  YAP mRNA levels: no noticeable changes
YAP [1]; 10 μM C108, 12 hrs
  YAP protein in the presence of cycloheximide: rapidly diminished
YAP [1]; BOCS cells, 16 hours of treatment
  YAP protein levels: dramatic decrease
YAP [1]; BOCs 293 cells, 12 and 24 hr of drug exposure
  concentration at which endogenous YAP protein was significantly reduced: 2 to 3 µM
YAP [1]; SF268 glioma, M14 melanoma and SK-Mel-28 melanoma
  YAP protein levels: decreased
M14 Melanoma
  M14 Melanoma cell proliferation: inhibitory effect
SK-Mel-28 melanoma
  migration of SK-Mel-28 melanoma: suppressed
M14
  migration of M14: suppressed
EKVX adenocarcinoma
  migration of EKVX adenocarcinoma: suppressed
[2]
  growth of EKVX xenograft tumors: significantly inhibited
M14 melanoma xenograft; 100 mg/kg daily via tail-vein injection, three weeks
  total body weight: not affected
M14 melanoma xenograft; 100 mg/kg daily via tail-vein injection, three weeks, nude mice
  growth of M14 xenograft tumors: significantly inhibited
M14 melanoma xenograft; M14 tumors from treated mice
  apoptotic marker cleaved PARP in tumors (Western blot): dramatic increase
  level of YAP in tumor tissues (Western blot): lower level
M14 melanoma xenograft; melanoma xenografts
  Hematoxylin and Eosin stain of tumor sections: sparser and have lower nuclear to cytoplasimc ratio
YAP [3]
  endogenous YAP ubiquitination: dramatically increased

## CNC[C@H](O)c1ccc(O)c(O)c1 [epinephrine]
Lats1 [4]
  Lats1 activity: increased
YAP/TAZ
  YAP phosphorylation (Ser127, phos-tag), time course: transiently increased
  mutual effect of epinephrine and LPA on YAP phosphorylation: antagonized each other's effect
  phosphorylation of YAP: dose-dependent phosphorylation
YAP [5]
  YAP phosphorylation in heart: significantly increased
YAP [6]
  YAP localization (immunofluorescence): accumulation of cytoplasmic YAP
CREB
  phosphorylation of CREB: increased
  phosphorylation of CREB, time course: transient induction

## lysophosphatidic acid [LPA]
Lats1 [4]; HEK293A, serum or LPA
  Lats1 kinase activity: rapidly inhibited
YAP [7]
  YAP-14-3-3 interaction: attenuated
  interaction between YAP and TEAD1: enhanced
YAP/TAZ; HEK293A transfected with GFP-YAP, LPA 1 h
  phosphorylation of YAP S381/384: decreased
YAP/TAZ; HEK293A, 1 μM for indicated times
  YAP/TAZ dephosphorylation, time course: rapid YAP/TAZ dephosphorylation
YAP/TAZ; HEK293A, 100 μM lipid
  dephosphorylation of YAP/TAZ by phospholipids: strongly induced dephosphorylation
YAP/TAZ; HEK293A, 1 h
  concentration inducing complete YAP/TAZ dephosphorylation: 0.1 µM
  concentration inducing partial YAP/TAZ dephosphorylation: 0.01 µM
YAP/TAZ; HEK293A, different doses of LPA, S1P, LPC or PA for 1 h
  YAP dephosphorylation, different doses: potently induced
YAP/TAZ; serum-starved U2OS, LPA, epinephrine or both, 1 h
  mutual effect of epinephrine and LPA on YAP phosphorylation: antagonized each other's effect
Mst1/2; HEK293A with Flag-MST2, LPA 0.2 or 1 μM, 1 h
  phosphorylation of MST2 at T180: not changed
Mst1/2; HEK293A, FBS 1% or LPA 1 μM, GST-Mob substrate
  Mst1 kinase activity: no detectable effect
CTGF
  expression of CTGF: induced
YAP [6]; HEK293A and MCF10A, 1 μM, 1 h
  YAP nuclear localization: induced YAP nuclear localization
YAP [6]; MCF10A
  time after LPA withdrawal at which YAP redistributed into cytoplasm: 30 min
Lats1 [8]
  phosphorylation of Lats1 at S909 and T1079: decreased
HEK293A cells
  cell proliferation in serum free medium: strongly induced cell proliferation
